Laboratory results from paper PMC10482691, “LTP induction by structural rather than enzymatic functions of CaMKII” (Nature, 2023).
“And” between values parts separate entries of the source, which are not always exact repeats. Identical values can stand only once.

Columns and labels:
[1] = tested on: CA1 LTP in CaMKIIα KO slices (mock); assay: LTP field recordings in slices of CaMKIIα KO mice injected with AAV-mScarlet (mock); assay type: cell-based, mouse; details: for fEPSP slope (normalized to baseline): individual slices, sheet 5b
Protocol: Stereotactic injections were performed on P24 CaMKIIα KO mice. Animals were anesthetized with an intraperitoneal injection of 2,2,2-Tribromoethanol (250 mg kg^−1) and then head fixed to a stereotactic frame (David Kopf Instruments). AAVs (0.2–0.5 µl) were injected into intermediate CA1 at a rate of […] using a syringe pump (World Precision Instruments). Coordinates (in millimetres) were anterior–posterior: −3.17; mediolateral: ±3.45 (relative to Bregma); and dorsoventral: −2.5 (relative to pia). To confirm specificity of the injection site following LTP recordings, slices were fixed in 4% paraformaldehyde; then, they were coverslipped and imaged on an Olympus slide scanning microscope.
WT and mutant mouse hippocampal slices were prepared using P56–P70 mice. Isoflurane-anesthetized mice were rapidly decapitated, and the brain was dissected in an ice-cold high-sucrose solution containing 220 mM sucrose, 12 mM MgSO4, 10 mM glucose, 0.2 mM CaCl2, 0.5 mM KCl, 0.65 mM NaH2PO4, 13 mM NaHCO3 and 1.8 mM ascorbate. Transverse hippocampal slices (400 μm) were made using a tissue chopper (McIlwain) and transferred into 32 °C ACSF containing 124 mM NaCl, 3.5 mM KCl, 1.3 mM NaH2PO4, 26 mM NaHCO3, 10 mM glucose, 2 mM CaCl2, 1 mM MgSO4 and 1.8 mM ascorbate. All slices were recovered in 95% O2/5% CO2 for at least 1.5 h before experimentation.
For electrophysiological slice recording experiments, a glass micropipette (typical resistance of 0.4–0.8 megaohm when filled with ACSF) was used to record fEPSPs from the CA1 dendritic layer in response to stimulation of the Schaffer collaterals using a tungsten bipolar electrode. Slices were continually perfused with 30.5 °C ± 0.5 °C ACSF at a rate of 2.5 ± 0.5 ml min^−1 during recordings. Stimuli were delivered every 20 s, and three responses (1 min) were averaged for analysis. Data were analysed using WinLTP software with slope calculated as the initial rise from 10 to 60% of the response peak. Input–output curves were generated by increasing the stimulus intensity at a constant interval until a maximum response or population spike was noted to determine stimulation that elicits 50% of maximum slope. […] A stable baseline was acquired for a minimum of 20 min at 50% maximum slope before high-frequency stimulation (HFS; 2 × 100 Hz, 10 s interval) was applied. Responses were recorded for 40 or 60 min after HFS. Change in slope was calculated as a ratio of the average slope of the 20 min baseline (before HFS). Bar graphs of the percentage of fEPSP slope were calculated by averaging the last 10 min time points post-HFS and normalized to baseline.

[2] = tested on: GFP–CaMKII F89G in rat hippocampal neurons; assay: cLTP-induced CaMKII synaptic enrichment in dissociated hippocampal cultures (GFP–CaMKII F89G); assay type: cell-based; details: for CaMKII synaptic enrichment: GFP-CaMKII F89G, individual neurons, sheet 4e
purified CaMKIIα = purified CaMKIIα (Rattus norvegicus, UniProt P11275); assay: In vitro kinase reaction: CaMKIIα phosphorylation of GST–GluA1 S831; assay type: biochemical; details: 30 °C, 1 mM ATP, Ki from IC50 with Km ATP 33.3 μM, read-out: apparent inhibitor constant (Ki), pS831
Protocol: Data are presented as mean values ± s.e.m. a, Schematic of the AS283 inhibitor mechanism of action: ATP-competitive inhibition blocks enzymatic activity while mimicking the nucleotide binding requirement to allow interaction with GluN2B. b, Representative immunoblot and quantification of in vitro kinase reactions at 30 °C in 1 mM ATP measuring purified CaMKIIα phosphorylation of GST–GluA1 S831 with varying concentrations of AS283 (0.41–10 μM; n = 4 independent concentration curves). For a negative control (Neg.), ATP was omitted. […] ADP:AS283 P = 0.0697; ADP:tatCN21 P < 0.0001. ***P < 0.001. d, Confocal microscopy images of HEK293 cells co-expressing GFP–CaMKII and mCherry-2BC. […] CaMKII synaptic enrichment was measured before and after cLTP (n = 14,9 cells; RM two-way ANOVA with Šídák’s multiple comparisons test). […]
CaMKII-mediated phosphorylation of GluA1 S831 or GluN2B S1303 was measured by in vitro kinase reaction with a purified GST–GluA1 C-terminal tail or GST-GluN2B C-terminal tail. […] GST, phospho-S831, CaMKII, phospho-T286 or phospho-S1303 were detected in the samples by immunoblot analysis.
The inhibition constant Ki was calculated using the Cheng–Prusoff equation for competitive inhibition: Ki = IC50/(1 + [ATP]/Km).

PKG1α(h) = PKG1α(h) (Homo sapiens, UniProt Q13976); assay: Kinase selectivity panel (residual activity at 1 μM); assay type: biochemical; details: inhibitor at 1 μM; read-out: residual kinase activity in % of maximal activity
MAPK2(h) = MAPK2(h) (Homo sapiens, UniProt P28482); assay: as above; assay type: biochemical; details: inhibitor at 1 μM; read-out: residual kinase activity in % of maximal activity
ROCK-II(h) = ROCK-II(h) (Homo sapiens, UniProt O75116); assay: as above; assay type: biochemical; details: inhibitor at 1 μM; read-out: residual kinase activity in % of maximal activity
ROCK-II(h), sequence (O75116 whole entry): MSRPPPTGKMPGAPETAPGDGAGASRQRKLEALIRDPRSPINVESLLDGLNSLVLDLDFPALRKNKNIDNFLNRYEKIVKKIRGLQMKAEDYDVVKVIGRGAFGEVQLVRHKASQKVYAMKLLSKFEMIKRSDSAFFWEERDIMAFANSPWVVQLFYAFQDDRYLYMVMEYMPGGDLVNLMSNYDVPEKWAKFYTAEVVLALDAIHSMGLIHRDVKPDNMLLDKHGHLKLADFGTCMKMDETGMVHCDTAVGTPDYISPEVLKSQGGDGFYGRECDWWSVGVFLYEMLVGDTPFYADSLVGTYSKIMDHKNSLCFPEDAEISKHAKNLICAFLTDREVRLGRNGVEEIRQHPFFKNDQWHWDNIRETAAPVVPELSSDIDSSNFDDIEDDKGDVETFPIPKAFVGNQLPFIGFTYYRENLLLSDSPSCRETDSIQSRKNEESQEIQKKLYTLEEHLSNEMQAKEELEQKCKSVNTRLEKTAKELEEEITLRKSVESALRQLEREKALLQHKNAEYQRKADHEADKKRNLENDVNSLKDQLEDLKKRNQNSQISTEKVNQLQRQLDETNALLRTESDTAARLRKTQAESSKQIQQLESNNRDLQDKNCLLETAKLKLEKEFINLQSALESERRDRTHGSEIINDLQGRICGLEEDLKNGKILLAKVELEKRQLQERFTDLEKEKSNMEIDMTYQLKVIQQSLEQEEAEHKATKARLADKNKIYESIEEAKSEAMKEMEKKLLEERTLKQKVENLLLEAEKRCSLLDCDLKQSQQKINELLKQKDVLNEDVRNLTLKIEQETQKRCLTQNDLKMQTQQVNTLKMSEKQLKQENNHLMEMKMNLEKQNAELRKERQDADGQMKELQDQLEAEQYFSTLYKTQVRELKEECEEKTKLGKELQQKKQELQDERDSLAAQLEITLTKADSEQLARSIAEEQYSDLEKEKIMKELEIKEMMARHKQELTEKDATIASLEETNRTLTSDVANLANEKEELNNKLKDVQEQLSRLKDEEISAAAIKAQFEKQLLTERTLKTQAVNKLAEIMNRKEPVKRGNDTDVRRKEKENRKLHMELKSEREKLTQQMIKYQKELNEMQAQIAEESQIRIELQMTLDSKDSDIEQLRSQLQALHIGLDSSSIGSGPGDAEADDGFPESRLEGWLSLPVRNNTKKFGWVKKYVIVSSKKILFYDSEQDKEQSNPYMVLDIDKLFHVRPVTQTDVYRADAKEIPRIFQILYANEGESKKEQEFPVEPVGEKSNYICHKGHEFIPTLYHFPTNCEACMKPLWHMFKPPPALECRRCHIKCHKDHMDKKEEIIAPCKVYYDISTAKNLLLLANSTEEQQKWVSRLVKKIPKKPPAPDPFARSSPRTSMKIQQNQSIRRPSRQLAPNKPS

PKG1α(h), sequence (Q13976 whole entry): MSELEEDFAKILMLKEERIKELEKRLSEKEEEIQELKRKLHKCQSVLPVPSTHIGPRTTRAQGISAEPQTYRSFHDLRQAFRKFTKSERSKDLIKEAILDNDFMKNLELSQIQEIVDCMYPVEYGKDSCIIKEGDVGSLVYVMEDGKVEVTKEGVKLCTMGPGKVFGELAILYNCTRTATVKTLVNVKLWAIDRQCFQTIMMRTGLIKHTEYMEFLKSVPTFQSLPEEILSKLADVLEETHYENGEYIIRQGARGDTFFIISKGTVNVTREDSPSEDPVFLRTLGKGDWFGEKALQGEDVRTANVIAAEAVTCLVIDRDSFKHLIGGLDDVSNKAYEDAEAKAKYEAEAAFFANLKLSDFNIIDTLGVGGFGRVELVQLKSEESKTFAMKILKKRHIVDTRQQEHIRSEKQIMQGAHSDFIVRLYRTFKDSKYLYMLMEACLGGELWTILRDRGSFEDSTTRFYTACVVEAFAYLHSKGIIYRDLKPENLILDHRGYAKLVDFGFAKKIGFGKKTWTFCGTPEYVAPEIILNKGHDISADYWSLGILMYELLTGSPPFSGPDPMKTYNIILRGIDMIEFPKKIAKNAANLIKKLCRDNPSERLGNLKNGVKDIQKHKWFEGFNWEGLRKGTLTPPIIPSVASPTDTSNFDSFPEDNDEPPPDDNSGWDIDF
MAPK2(h), sequence (P28482 whole entry): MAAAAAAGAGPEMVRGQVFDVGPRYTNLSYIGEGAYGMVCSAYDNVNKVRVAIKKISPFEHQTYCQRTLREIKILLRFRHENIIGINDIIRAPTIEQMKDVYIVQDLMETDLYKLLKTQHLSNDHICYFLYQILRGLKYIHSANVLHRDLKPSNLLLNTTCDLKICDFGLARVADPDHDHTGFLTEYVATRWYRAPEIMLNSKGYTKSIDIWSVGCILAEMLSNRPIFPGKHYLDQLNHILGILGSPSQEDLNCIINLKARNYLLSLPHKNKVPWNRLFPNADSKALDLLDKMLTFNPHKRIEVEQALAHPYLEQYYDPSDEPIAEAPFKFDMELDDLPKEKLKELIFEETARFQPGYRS

Structure (SMILES): CC(C)(C)n1nc(Cc2cccc3ccccc23)c2c(N)ncnc21 [NM-PP1]
- synaptic response 60 min following LTP induction (fEPSP slope normalized to baseline) ([1]; AAV-mScarlet (mock), 10 μM NM-PP1): 102.757% and 115.997% and 130.031% and 114.245% and 91.515% and 129.007%
- effect on residual LTP in control slices ([1]; NM-PP1): no effect
- fEPSP slope (normalized to baseline) ([1]; Time (min) 0): 101.067 and 113.338 and 103.234 and 95.8969 and 93.1952 and 132.987
- fEPSP slope (normalized to baseline) ([1]; Time (min) 2.33333): 249.911 and 143.318 and 169.121 and 175.176 and 145.841 and 156.755
- fEPSP slope (normalized to baseline) ([1]; Time (min) 4.33333): 204.384 and 151.727 and 165.598 and 165.31 and 135.76 and 108.68
- fEPSP slope (normalized to baseline) ([1]; Time (min) 6.33333): 189.169 and 150.265 and 135.884 and 160.117 and 120.975 and 129.276
- fEPSP slope (normalized to baseline) ([1]; Time (min) 8.33333): 181.94 and 147.249 and 128.602 and 144.365 and 120.078 and 132.395
- fEPSP slope (normalized to baseline) ([1]; Time (min) 10.3333): 172.351 and 139.799 and 136.941 and 133.459 and 110.893 and 130.889
- fEPSP slope (normalized to baseline) ([1]; Time (min) 12.3333): 161.674 and 137.88 and 134.122 and 129.997 and 100.812 and 137.611
- fEPSP slope (normalized to baseline) ([1]; Time (min) 14.3333): 174.774 and 134.406 and 129.19 and 125.67 and 98.5718 and 121.048
- fEPSP slope (normalized to baseline) ([1]; Time (min) 16.3333): 159.559 and 133.63 and 131.891 and 126.189 and 89.1627 and 135.622
- fEPSP slope (normalized to baseline) ([1]; Time (min) 18.3333): 153.964 and 134.681 and 128.015 and 124.631 and 95.4355 and 108.465
- fEPSP slope (normalized to baseline) ([1]; Time (min) 20.3333): 149.095 and 132.944 and 120.851 and 126.189 and 102.828 and 98.3552
- fEPSP slope (normalized to baseline) ([1]; Time (min) 22.3333): 149.671 and 128.922 and 119.442 and 125.843 and 91.627 and 123.092
- fEPSP slope (normalized to baseline) ([1]; Time (min) 24.3333): 144.438 and 125.952 and 116.623 and 124.631 and 90.9549 and 132.503
- fEPSP slope (normalized to baseline) ([1]; Time (min) 26.3333): 142.473 and 123.484 and 117.21 and 125.843
- fEPSP slope (normalized to baseline) ([1]; Time (min) -2): 96.4978 and 115.989 and 102.999 and 98.6665 and 100.14 and 126.48
- fEPSP slope (normalized to baseline) ([1]; Time (min) -4): 101.912 and 117.543 and 106.993 and 100.051 and 103.5 and 95.9353
- fEPSP slope (normalized to baseline) ([1]; Time (min) -6): 102.969 and 117.634 and 102.06 and 101.09 and 99.2439 and 110.347
- effect on impaired LTP-induced synaptic CaMKII localization ([2]; F89G mutant, 10 μM NM-PP1): rescued
- CaMKII synaptic enrichment ([2]; NMPP1, before cLTP): 1.457 and 2.177 and 1.336 and 1.561 and 0.9177 and 1.552
- CaMKII synaptic enrichment ([2]; after cLTP in NMPP1): 2.238 and 2.292 and 2.101 and 2.038 and 1.685 and 2.186

Structure (SMILES): NCCNc1cccc(-c2ccnc3[nH]c4ccccc4c23)c1 [AS283]
- Ki (purified CaMKIIα): 0.017 µM
- remaining activity at 1 µM (PKG1α(h)): 48%
- remaining activity at 1 µM (MAPK2(h)): 97%
- remaining activity at 1 µM (ROCK-II(h)): 77%
